According to patent publication US8883766B2, “Ion channel modulators and methods of use” (Vertex Pharmaceuticals Incorporated, priority 2007, dated 2014):

Molecular target: T1, NaV1.3 (Homo sapiens, UniProt Q9NY46)
T1 construct: expressed in transfected cells
Assay: VIPR optical membrane potential assay with electrical stimulation, HEK293 cells stably expressing NaV1.3
Type: cell-based
Conditions: compound activity for the NaV1.3 receptors
Procedure: Compounds of the invention are useful as antagonists of voltage-gated sodium ion channels. Antagonist properties of test compounds were assessed as follows. Cells expressing the NaV of interest were placed into microtiter plates. After an incubation period, the cells were stained with fluorescent dyes sensitive to the transmembrane potential. The test compounds were added to the microtiter plate. The cells were stimulated with either chemical or electrical means to evoke a NaV dependent membrane potential change from unblocked channels, which was detected and measured with trans-membrane potential-sensitive dyes. Antagonists were detected as a decreased membrane potential response to the stimulus. The optical membrane potential assay utilized voltage-sensitive FRET sensors described by Gonzalez and Tsien (See, Gonzalez, J. E. and R. Y. Tsien (1995) “Voltage sensing by fluorescence resonance energy transfer in single cells” Biophys J 69(4): 1272-80, and Gonzalez, J. E. and R. Y. Tsien (1997) “Improved indicators of cell membrane potential that use fluorescence resonance energy transfer” Chem Biol 4(4): 269-77) in combination with instrumentation for measuring fluorescence changes such as the Voltage/Ion Probe Reader (VIPR®) (See, Gonzalez, J. E., K. Oades, et al. (1999) “Cell-based assays and instrumentation for screening ion-channel targets” Drug Discov Today 4(9): 431-439).
The following is an example of how NaV1.3 inhibition activity is measured using the optical membrane potential method #2. Other subtypes are performed in an analogous mode in a cell line expressing the NaV of interest.
HEK293 cells stably expressing NaV1.3 are plated into 96-well microtiter plates. After an appropriate incubation period, the cells are stained with the voltage sensitive dyes CC2-DMPE/DiSBAC2(3) as follows.
2×CC2-DMPE=20 μM CC2-DMPE: 10 mM CC2-DMPE is vortexed with an equivalent volume of 10% pluronic, followed by vortexing in required amount of HBSS containing 10 mM HEPES. Each cell plate will require 5 mL of 2×CC2-DMPE. 50 μL of 2×CC2-DMPE is added to wells containing washed cells, resulting in a 10 μM final staining concentration. The cells are stained for 30 minutes in the dark at RT.
2×DISBAC2(3) with ABSC1=6 μM DISBAC2(3) and 1 mM ABSC1: The required amount of 10 mM DISBAC2(3) is added to a 50 ml conical tube and mixed with 1 μL 10% pluronic for each mL of solution to be made and vortexed together. Then HBSS/HEPES is added to make up 2× solution. Finally, the ABSC1 is added.
The 2×DiSBAC2(3) solution can be used to solvate compound plates. Note that compound plates are made at 2× drug concentration. Wash stained plate again, leaving residual volume of 50 μL. Add 50 μL/well of the 2×DiSBAC2(3) w/ ABSC1. Stain for 30 minutes in the dark at RT.
The electrical stimulation instrument and methods of use are described in ION Channel Assay Methods PCT/US01/21652, herein incorporated by reference. The instrument comprises a microtiter plate handler, an optical system for exciting the coumarin dye while simultaneously recording the coumarin and oxonol emissions, a waveform generator, a current- or voltage-controlled amplifier, and a device for inserting electrodes in well. Under integrated computer control, this instrument passes user-programmed electrical stimulus protocols to cells within the wells of the microtiter plate.
Use the current-controlled amplifier to deliver stimulation wave pulses for 3 s. Two seconds of pre-stimulus recording are performed to obtain the un-stimulated intensities. Five seconds of post-stimulation recording are performed to examine the relaxation to the resting state.
Data are analyzed and reported as normalized ratios of background-subtracted emission intensities measured in the 460 nm and 580 nm channels. Background intensities are then subtracted from each assay channel. […]

T1 sequence (Q9NY46 whole entry): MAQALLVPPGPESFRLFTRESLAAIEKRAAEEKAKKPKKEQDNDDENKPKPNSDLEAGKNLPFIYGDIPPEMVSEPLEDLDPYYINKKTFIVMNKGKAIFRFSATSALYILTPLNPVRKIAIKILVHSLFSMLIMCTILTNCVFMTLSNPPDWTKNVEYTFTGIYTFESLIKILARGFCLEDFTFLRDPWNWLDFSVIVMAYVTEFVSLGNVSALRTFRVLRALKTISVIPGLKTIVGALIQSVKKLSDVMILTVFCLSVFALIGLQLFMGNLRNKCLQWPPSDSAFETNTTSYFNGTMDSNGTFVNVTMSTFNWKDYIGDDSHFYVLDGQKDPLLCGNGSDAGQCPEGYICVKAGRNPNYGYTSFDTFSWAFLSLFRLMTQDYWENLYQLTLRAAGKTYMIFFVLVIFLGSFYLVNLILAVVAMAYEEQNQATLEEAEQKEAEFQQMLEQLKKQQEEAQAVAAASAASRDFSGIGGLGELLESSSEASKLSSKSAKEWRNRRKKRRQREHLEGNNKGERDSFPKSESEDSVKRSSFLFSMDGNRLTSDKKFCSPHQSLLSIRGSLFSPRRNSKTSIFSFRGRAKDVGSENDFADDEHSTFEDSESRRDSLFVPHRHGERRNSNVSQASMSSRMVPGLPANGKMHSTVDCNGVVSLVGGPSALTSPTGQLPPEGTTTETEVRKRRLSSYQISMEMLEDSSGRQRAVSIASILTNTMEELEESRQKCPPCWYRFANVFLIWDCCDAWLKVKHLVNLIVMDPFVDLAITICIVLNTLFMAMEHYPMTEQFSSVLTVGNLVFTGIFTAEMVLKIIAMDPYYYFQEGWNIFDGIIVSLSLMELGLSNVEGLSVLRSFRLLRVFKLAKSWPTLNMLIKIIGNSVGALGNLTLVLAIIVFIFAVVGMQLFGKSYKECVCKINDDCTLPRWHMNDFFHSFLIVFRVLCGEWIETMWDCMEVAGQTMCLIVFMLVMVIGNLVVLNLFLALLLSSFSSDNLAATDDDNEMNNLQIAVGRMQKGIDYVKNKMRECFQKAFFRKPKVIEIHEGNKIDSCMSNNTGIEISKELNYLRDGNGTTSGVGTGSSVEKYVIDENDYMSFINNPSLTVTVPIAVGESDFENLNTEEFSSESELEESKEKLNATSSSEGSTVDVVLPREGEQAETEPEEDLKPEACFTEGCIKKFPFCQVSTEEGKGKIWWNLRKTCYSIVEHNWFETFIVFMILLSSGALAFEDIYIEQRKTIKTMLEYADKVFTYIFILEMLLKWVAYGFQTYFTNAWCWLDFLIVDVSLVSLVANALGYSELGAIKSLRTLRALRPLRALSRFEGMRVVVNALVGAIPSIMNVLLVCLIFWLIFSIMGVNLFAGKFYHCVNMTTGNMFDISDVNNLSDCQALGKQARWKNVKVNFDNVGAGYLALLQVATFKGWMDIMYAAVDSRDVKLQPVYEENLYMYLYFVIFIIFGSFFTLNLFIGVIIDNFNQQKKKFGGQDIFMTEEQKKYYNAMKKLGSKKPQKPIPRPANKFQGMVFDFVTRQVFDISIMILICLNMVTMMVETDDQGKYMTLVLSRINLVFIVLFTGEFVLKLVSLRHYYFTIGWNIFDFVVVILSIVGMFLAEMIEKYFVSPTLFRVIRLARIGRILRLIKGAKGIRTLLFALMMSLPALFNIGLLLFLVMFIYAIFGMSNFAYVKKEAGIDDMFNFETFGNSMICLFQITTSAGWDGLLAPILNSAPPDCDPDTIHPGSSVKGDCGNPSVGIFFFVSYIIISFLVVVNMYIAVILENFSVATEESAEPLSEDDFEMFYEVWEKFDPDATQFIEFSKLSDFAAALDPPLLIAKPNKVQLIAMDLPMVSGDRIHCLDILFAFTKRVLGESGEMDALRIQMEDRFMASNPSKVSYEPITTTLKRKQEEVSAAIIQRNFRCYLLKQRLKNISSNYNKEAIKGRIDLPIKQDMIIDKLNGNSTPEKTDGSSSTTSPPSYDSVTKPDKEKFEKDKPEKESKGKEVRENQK

`COC(=O)NS(=O)(=O)c1ccc(NC(=O)CCn2ccc3cccc(Cl)c32)cc1` [Compound 1] and `COC(=O)NS(=O)(=O)c1ccc(NC(=O)Cn2ccc3cccc(Cl)c32)cc1` [Compound 28] cannot be ordered by IC50: over 5 µM for the first, over 5 µM for the second.

`COC(=O)NS(=O)(=O)c1ccc(NC(=O)Cn2cc(C)c3cc(Cl)ccc32)cc1` [Compound 83] and `COC(=O)NS(=O)(=O)c1ccc(NC(=O)Cn2ccc3cc(C)ccc32)cc1` [Compound 14] cannot be ordered by IC50: over 5 µM for the first, over 5 µM for the second.

`COC(=O)NS(=O)(=O)c1ccc(NC(=O)c2ccccc2)cc1` [Compound 9] and `COC(=O)NS(=O)(=O)c1ccc(NC(=O)Cc2ccccc2)cc1` [Compound 56] cannot be ordered by IC50: over 5 µM for the first, over 5 µM for the second.

`COC(=O)NS(=O)(=O)c1ccc(NC(=O)NCc2ccc(Cl)c(Cl)c2)cc1` [Compound 30, methyl 4-(3(3,4-dichlorobenzyl)ureido)phenylsulfonylcarbamate] and `COC(=O)NS(=O)(=O)c1ccc(NC(=O)COc2ccc(Cl)c(Cl)c2)cc1` [Compound 64] cannot be ordered by IC50: over 5 µM for the first, over 5 µM for the second.

`C[C@H](C(=O)Nc1ccc(S(=O)(=O)NC(=O)CC(C)(C)C)cc1)n1ccc2c(F)cccc21` [Compound 13] and `C[C@H](C(=O)Nc1ccc(S(=O)(=O)NC(=O)NC(C)(C)C)cc1)n1ccc2c(F)cccc21` [Compound 54] cannot be ordered by IC50: over 5 µM for the first, over 5 µM for the second.

Compared with `COC(=O)NS(=O)(=O)c1ccc(NC(=O)NC2Cc3ccccc3C2)cc1` [Compound 2], `COC(=O)NS(=O)(=O)c1ccc(NC(=O)[C@@H](C)n2ccc3ccccc32)cc1` [Compound 40] is lower in IC50: over 5 µM for the first, 2 to 5 µM for the second.

`CCC(=O)NS(=O)(=O)c1ccc(NC(=O)COc2ccnc3c(C(F)(F)F)cccc23)cc1` [Compound 71] and `COC(=O)NS(=O)(=O)c1ccc(NC(=O)Cn2ccc3ccc(C(F)(F)F)cc32)cc1` [Compound 39] cannot be ordered by IC50: over 5 µM for the first, over 5 µM for the second.

`NC(=O)NS(=O)(=O)c1ccc(NC(=O)CCn2ccc3cc(Cl)ccc32)cc1` [Compound 4] and `COC(=O)NS(=O)(=O)c1ccc(NC(=O)Cn2ccc3ccc(OC)cc32)cc1` [Compound 7] cannot be ordered by IC50: over 5 µM for the first, over 5 µM for the second.

`COC(=O)NS(=O)(=O)c1ccc(NC(=O)[C@@H](C)Oc2ccc(Cl)cc2C)cc1` [Compound 78] and `COC(=O)NS(=O)(=O)c1ccc(NC(=O)C(C)Oc2ccc(Cl)cc2C)cc1` (centres unmarked) [Compound 35] cannot be ordered by IC50: over 5 µM for the first, over 5 µM for the second.

`COC(=O)NS(=O)(=O)c1ccc(NC(=O)[C@H](C)N2CCCc3cc(Cl)ccc32)cc1` [Compound 75] and `COC(=O)NS(=O)(=O)c1ccc(NC(=O)[C@@H](C)N2CCCc3cc(F)ccc32)cc1` [Compound 55] cannot be ordered by IC50: over 5 µM for the first, over 5 µM for the second.

Compared with `COC(=O)NS(=O)(=O)c1ccc(NC(=O)[C@H](C)n2ccc3ccc(C(F)(F)F)cc32)cc1` [Compound 25], `COC(=O)NS(=O)(=O)c1ccc(NC(=O)[C@@H](C)n2ccc3ccc(C(F)(F)F)cc32)cc1` [Compound 87, (R)-methyl 4-(2-(6-(trifluoromethyl)-1H-indol-1-yl)propanamido)phenylsulfonylcarbamate] is lower in IC50: over 5 µM for the first, under 2 µM for the second. The second is the more potent here.

`CCOC(=O)NS(=O)(=O)c1ccc(N2CCN(C(=O)[C@@H](C)N3CCCc4cc(Cl)ccc43)CC2)cc1` [Compound 52] and `COC(=O)NS(=O)(=O)c1ccc(N2CCN(C(=O)[C@@H](C)N3CCCc4cc(Cl)ccc43)CC2)cc1` [Compound 50] cannot be ordered by IC50: over 5 µM for the first, over 5 µM for the second.

First: C[C@H](C(=O)Nc1ccc(S(=O)(=O)NC(=O)c2ccccc2)cc1)n1ccc2c(F)cccc21 [Compound 74, (R)—N-(4-(2-(4-fluoro-1H indol-1-yl)propanamido)phenylsulfonyl)benzamide]
Second: C[C@H](C(=O)Nc1ccc(S(=O)(=O)NC(N)=O)cc1)n1ccc2c(F)cccc21 [Compound 63]
The IC50 of the first is higher: over 5 µM for the first, 2 to 5 µM for the second. The second is the more potent here.

`COC(=O)NS(=O)(=O)c1ccc(NC(=O)c2cc3c(F)cc(Cl)cc3[nH]2)cc1` [Compound 81] and `COC(=O)NS(=O)(=O)c1ccc(NC(=O)c2cc3c(F)cc(F)cc3[nH]2)cc1` [Compound 18] cannot be ordered by IC50: over 5 µM for the first, over 5 µM for the second.

Compared with `COC(=O)NS(=O)(=O)c1ccc(NC(=O)C(C)(C)n2ccc3c(F)cccc32)cc1` [Compound 85], `COC(=O)NS(=O)(=O)c1ccc(NC(=O)[C@@H](C)n2ccc3c(F)cccc32)cc1` [Compound 34] is lower in IC50: over 5 µM for the first, under 2 µM for the second. The second is the more potent here.

`C[C@H](C(=O)Nc1ccc(S(=O)(=O)NC(=O)Oc2ccc(F)cc2)cc1)n1ccc2c(F)cccc21` [Compound 29] and `CCOC(=O)NS(=O)(=O)c1ccc(NC(=O)[C@@H](C)n2ccc3c(F)cccc32)cc1` [Compound 43, (R)-Ethyl 4-(2-(4-fluoro-1H-indol-1-yl)propanamido)phenylsulfonyl-carbamate] cannot be ordered by IC50: over 5 µM for the first, over 5 µM for the second.

Compared with `COC(=O)NS(=O)(=O)c1ccc(NC(=O)[C@@H](C)n2ccc3ccc(Cl)cc32)cc1` [Compound 16], `COC(=O)NS(=O)(=O)c1ccc(NC(=O)[C@H](C)n2ccc3ccc(Cl)cc32)cc1` [Compound 80] is higher in IC50: 2 to 5 µM for the first, over 5 µM for the second. The first is the more potent here.

`COC(=O)NS(=O)(=O)c1ccc(NC(=O)Cn2ccc3c(C#N)cccc32)cc1` [Compound 44] and `COC(=O)NS(=O)(=O)c1ccc(NC(=O)[C@H](CC(C)C)n2ccc3c(F)cccc32)cc1` [Compound 77] cannot be ordered by IC50: over 5 µM for the first, over 5 µM for the second.

`COC(=O)NS(=O)(=O)c1ccc(NC(=O)[C@@H](C)n2ccc3cccc(F)c32)cc1` [Compound 36] and `COC(=O)NS(=O)(=O)c1ccc(NC(=O)[C@H](C)n2ccc3cccc(F)c32)cc1` [Compound 68] cannot be ordered by IC50: over 5 µM for the first, over 5 µM for the second.

`COC(=O)NS(=O)(=O)c1ccc(NC(=O)C2(c3ccc4c(c3)OCO4)CC2)cc1` [Compound 38] and `COC(=O)NS(=O)(=O)c1ccc(NC(=O)[C@@H](C)N2CCCc3cccc(Cl)c32)cc1` [Compound 62] cannot be ordered by IC50: over 5 µM for the first, over 5 µM for the second.

First: COC(=O)NS(=O)(=O)c1ccc(NC(=O)[C@@H](C)N2CCCc3cc(Cl)c(C)cc32)cc1 [Compound 22]
Second: COC(=O)NS(=O)(=O)c1ccc(NC(=O)[C@H](C(C)C)N2CCCc3cc(Cl)ccc32)cc1 [Compound 24]
The IC50 of the first is lower: under 2 µM for the first, over 5 µM for the second.

First: COC(=O)NS(=O)(=O)c1ccc(NC(=O)[C@@H](CC(C)C)N2CCCc3cc(Cl)ccc32)cc1 [Compound 86]
Second: COC(=O)NS(=O)(=O)c1ccc(NC(=O)[C@@H](CO)N2CCCc3cc(Cl)ccc32)cc1 [Compound 73]
The IC50 of the first is lower: 2 to 5 µM for the first, over 5 µM for the second.

`CCCCNC(=O)NS(=O)(=O)c1ccc(NC(=O)[C@@H](C)n2ccc3c(F)cccc32)cc1` [Compound 79] and `CC(=O)NS(=O)(=O)c1ccc(NC(=O)[C@@H](C)n2ccc3c(F)cccc32)cc1` [Compound 82] cannot be ordered by IC50: over 5 µM for the first, over 5 µM for the second.

`CCC(=O)NS(=O)(=O)c1ccc(NC(=O)C(C)n2ccc3ccccc32)cc1` (centres unmarked) [Compound 46] and `C[C@H](C(=O)Nc1ccc(S(=O)(=O)NC(=O)C2CCC2)cc1)n1ccc2c(F)cccc21` [Compound 42] cannot be ordered by IC50: over 5 µM for the first, over 5 µM for the second.

`COC(=O)NS(=O)(=O)c1ccc(NC(=O)c2ccc(OC)cc2)cc1` [Compound 88] and `COC(=O)NS(=O)(=O)c1ccc(NC(=O)CCCOc2ccc(Cl)cc2Cl)cc1` [Compound 37] cannot be ordered by IC50: over 5 µM for the first, over 5 µM for the second.

`C[C@H](C(=O)Nc1ccc(S(=O)(=O)NC(=O)C2CCCC2)cc1)n1ccc2c(F)cccc21` [Compound 11, (R)—N-(4-(2-(4-fluoro-1H indol-1-yl)propanamido)phenylsulfonyl)cyclopentanecarboxamide] and `COC(=O)NS(=O)(=O)c1ccc(C2CCN(C(=O)Cn3ccc4ccc(Cl)cc43)CC2)cc1` [Compound 32] cannot be ordered by IC50: over 5 µM for the first, over 5 µM for the second.

In the case of `CC(=O)NS(=O)(=O)c1ccc(N)cc1` [Compound 45], the IC50 is reported as over 5 µM.
